# Where “and” joins values, the source holds several entries; their conditions need not be identical. Equal values may be shown once. Read-outs that look alike come from different tables or passages of the source.
# Tests used:
# R2 reporter = assay: R2 luciferase reporter (BIRC3/BIRC2 locus) stably transfected in A549 cells; assay type: cell-based, human; details: for pA2 (Schild analysis): Org34517 1 μM; for EC50: A549, 6 h
# Experimental: Data were assumed to be normally distributed and, unless otherwise indicated, are presented as means ± SD with scatterplots showing individual values. […] Multiple comparisons were made using one-way ANOVA with Tukey’s or Dunnett’s post hoc tests, as appropriate. Comparisons between 2 groups were performed by 2-tailed, paired Student’s t test. The number of independent experiments (N) is indicated in each graph and, being exploratory, sample sizes were not prespecified. […] Heat maps were generated using the R package “pheatmap.” Concentration-response relationships were fitted using the 4-parameter model that assumed symmetric variance or using the Gaddum-Schild model of competitive antagonism, as described previously.[43] Variance in pEC50, EMax, or pA2 are provided by Prism as mean ±SE, whereas all curves are plotted as means ±SD (but without scatterplots). Because all analyses were exploratory and were not designed to test prespecified statistical null hypotheses, stated P values should be viewed as being descriptive rather than as hypothesis testing.
# R4 reporter = assay: R4 luciferase reporter stably transfected in A549 cells; assay type: cell-based, human; details: for EC50: Homo sapiens, A549, read-out: EC50, inhibition of IL-1β-induced R4 reporter activity
# Experimental: (§2) Data were assumed to be normally distributed and, unless otherwise indicated, are presented as means ± SD with scatterplots showing individual values. With the exception of pEC50 values, numerical values in tables and text are provided to one decimal place, or where appropriate 2 significant figures of accuracy. […] Multiple comparisons were made using one-way ANOVA with Tukey’s or Dunnett’s post hoc tests, as appropriate. Comparisons between 2 groups were performed by 2-tailed, paired Student’s t test. The number of independent experiments (N) is indicated in each graph and, being exploratory, sample sizes were not prespecified. […] GraphPad Prism software (version 11; Dotmatics) and/or the R package “ggplot2” was used for graph plotting and statistical analyses. Heat maps were generated using the R package “pheatmap.” Concentration-response relationships were fitted using the 4-parameter model that assumed symmetric variance or using the Gaddum-Schild model of competitive antagonism, as described previously.[43] Variance in pEC50, EMax, or pA2 are provided by Prism as mean ±SE, whereas all curves are plotted as means ±SD (but without scatterplots).
# R5 reporter = assay: R5 luciferase reporter stably transfected in A549 cells; assay type: cell-based, human; details: for EC50: Homo sapiens
# Experimental: as §2
# R8 reporter [1] = assay: R8 luciferase reporter stably transfected in A549 cells; details: for EC50 / inhibition at 30 µM: Homo sapiens; for EC50: A549, read-out: pEC50, R8 reporter (converted), Schild experiments (Fig. 7D); for inhibition at 30 µM: A549, read-out: inhibition of IL-1β-plus-dexamethasone-induced R8 reporter activity
# Experimental: as §2
# GR recruitment to FKBP5 = assay: ChIP-qPCR of GR recruitment to FKBP5 in A549 cells; assay type: cell-based, human; details: budesonide 300 nM, 1 hour
# Experimental: (§3) After cell treatments, formaldehyde (PI28906, Thermo Fisher Scientific) was added to a final concentration of 1% for 10 minutes. […] Following cytoplasmic and then nuclear lysis, lysates were sonicated with 30 high-power bursts in a 30 seconds on-off cycle at 4 °C using a Bioruptor (Diagenode). Antibodies: GR, GR-356,[36] RELA (NF-κB p65, D14E12, #8242, Cell Signaling Technologies); RNA polymerase 2 (RNAP2) (Rpb1 NTD D8L4Y, #14958, Cell Signaling Technologies) used for ChIP were preincubated with protein G magnetic Dynabeads (10004D, Thermo Fisher Scientific) overnight at 4 °C and beads were washed as previously described. Nuclear lysates were then incubated with the antibody-coated beads overnight prior to extensive washing. Following reversal of crosslinks, DNA was purified with a ChIP DNA Clean & Concentrator kit (D5205, Zymo Research). Fast SYBR Green Master Mix (Thermo Fisher Scientific) was used in standard quantitative polymerase chain reaction (qPCR) reactions to detect DNA regions of interest. […] Relative occupancy at each region was calculated as ΔΔ threshold cycle (CT) after normalization to the geometric mean of the threshold cycle values for 3 negative control regions (Gene symbols: OLIG3, MYOD1, and MYOG).
# R7 reporter = assay: R7 luciferase reporter stably transfected in A549 cells; assay type: cell-based, human
# Experimental: as §2
# R0 reporter = assay: R0 luciferase reporter stably transfected in A549 cells; assay type: cell-based, human; details: IL-1β 1 ng/mL, 6 h (Fig. 3B,C)
# Experimental: as §2
# R3 reporter = assay: R3 luciferase reporter stably transfected in A549 cells; assay type: cell-based, human; details: IL-1β 1 ng/mL, 6 h (Fig. 3B,C)
# Experimental: Data were assumed to be normally distributed and, unless otherwise indicated, are presented as means ± SD with scatterplots showing individual values. […] Multiple comparisons were made using one-way ANOVA with Tukey’s or Dunnett’s post hoc tests, as appropriate. Comparisons between 2 groups were performed by 2-tailed, paired Student’s t test. The number of independent experiments (N) is indicated in each graph and, being exploratory, sample sizes were not prespecified. […] GraphPad Prism software (version 11; Dotmatics) and/or the R package “ggplot2” was used for graph plotting and statistical analyses. Heat maps were generated using the R package “pheatmap.” Concentration-response relationships were fitted using the 4-parameter model that assumed symmetric variance or using the Gaddum-Schild model of competitive antagonism, as described previously.[43] Variance in pEC50, EMax, or pA2 are provided by Prism as mean ±SE, whereas all curves are plotted as means ±SD (but without scatterplots).
# [2] = system: RELA recruitment to CXCL8; assay: ChIP-qPCR of RELA recruitment to CXCL8 in A549 cells; assay type: cell-based, human; details: IL-1β 1 ng/mL, 1 hour
# Experimental: as §3
# BIRC3 mRNA = assay: qPCR of BIRC3 mRNA in A549 cells; assay type: cell-based, human; details: for EC50: Homo sapiens, A549, 2 h, IL-1β-induced BIRC3 mRNA, 2 h; for repression of IL-1β-induced BIRC3 mRNA: at 30 μM, IL-1β 2 h
# Experimental: (§1) Following treatments, total RNA was extracted and 500 ng used for cDNA synthesis according to standard procedures.[34] After 1:5 dilution, cDNA (2.5 μL) was analyzed by qPCR (StepOnePlus, Applied […] or QuantStudio3, Thermo Fisher Scientific) with Fast SYBR Green Master Mix (4385618, Thermo Fisher Scientific). Amplification conditions and primers specific for BIRC3, BIRC2, and glyceraldehyde-3-phosphate dehydrogenase mRNAs were as described.[9] In each case, relative cDNA concentrations were obtained from standard curves generated by serial dilution of a stimulated cDNA sample that was analyzed in parallel with the experimental samples. Primer specificity was assessed by melt curve analysis where a single peak in the change of fluorescence with temperature was taken to indicate specificity.
# BIRC2 mRNA = assay: qPCR of BIRC2 mRNA in A549 cells; assay type: cell-based, human; details: for effect on IL-1β-induced BIRC2 mRNA expression: concentration series, IL-1β 2 h (Fig. 6C)
# Experimental: as §1
# NF-κB reporter = system: NF-κB reporter; design: method as in PMID 17322026, PMID 37863662, PMID 38941070; details: read-out: EC50, inhibition of IL-1β-induced NF-κB reporter activity; cited from earlier work
# R8 reporter [3] = system: R8 reporter
# Experimental: as §2
# [4] = Homo sapiens, R2 reporter, glucocorticoid + IL-1β (1 ng/mL), 6 h
# [5] = Homo sapiens, R2 reporter, glucocorticoid, naïve, 6 h
# [6] = A549, 6 h, R5 reporter, glucocorticoid + IL-1β (1 ng/mL), 6 h
# [7] = A549, 6 h, R5 reporter, glucocorticoid, naïve, 6 h
# [8] = R5 reporter, glucocorticoid + IL-1β (1 ng/mL), % of 1 μM dexamethasone, 6 h
# [9] = R5 reporter, glucocorticoid, naïve, expressed as % of 1 μM dexamethasone, 6 h
# [10] = R5 reporter, IL-1β, naïve, n.r. = no significant response
# [11] = R8 reporter, IL-1β, naïve (Table 1), n.r. = no significant response
# [12] = R8 reporter, IL-1β, naïve, budesonide series (Supplemental Table 1), n.r. = no significant response
compound,measurement,setting,value
CC#C[C@]1(O)CCC2C3CCC4=CC(=O)CCC4=C3[C@@H](c3ccc4c(c3)OCO4)C[C@@]21C (some centres unmarked) [Org34517],pA2 (Schild analysis),"R2 reporter; R2 reporter, antagonism of dexamethasone + IL-1β",7.99
same,pA2 (Schild analysis),"R2 reporter; R2 reporter, antagonism of dexamethasone, consistent with antagonism at GR",7.71
same,effect on induced R4 reporter activity,"R4 reporter; Org34517 1 μM, P ≤ .05 and .01",reduced
same,"dexamethasone-induced luciferase activity in the presence of Org34517, fold","R5 reporter; R5 reporter, Org34517 1 μM, dexamethasone 1 μM",1.7 fold
same,pA2 (Schild analysis),"R5 reporter; R5 reporter, antagonism of dexamethasone, Org34517 1 μM",8.33 ±0.14
same,"IL-1β-plus-dexamethasone-induced reporter activity in the presence of Org34517, fold","R8 reporter [1]; R8 reporter, Org34517 1 μM",6.3 fold
same,"dexamethasone-induced reporter activity in the presence of Org34517, fold","R8 reporter [1]; R8 reporter, Org34517 1 μM, dexamethasone 1 μM",1.4 fold
same,pA2 (Schild analysis),"R8 reporter [1]; R8 reporter, antagonism of dexamethasone + IL-1β, Org34517 1 μM",8.14 ± 0.11
same,pA2 (Schild analysis),"R8 reporter [1]; R8 reporter, antagonism of dexamethasone, Org34517 1 μM",8.14 ± 0.11
"CCCC1O[C@@H]2C[C@H]3[C@@H]4CCC5=CC(=O)C=C[C@]5(C)[C@H]4[C@@H](O)C[C@]3(C)[C@]2(C(=O)CO)O1 (some centres unmarked) [Budesonide, budesonide]",EC50,R2 reporter; [4],5.89 nM
same,EC50,R2 reporter; [5],3.47 nM
same,EMax (Fold ± SE),"R2 reporter; R2 reporter, glucocorticoid + IL-1β (1 ng/mL), 6 h",3.3 Fold
same,EMax (Fold ± SE),"R2 reporter; R2 reporter, glucocorticoid concentration-response, naïve, 6 h",2.4 Fold
same,EC50,R5 reporter; [6],12.3 nM
same,EC50,R5 reporter; [7],6.61 nM
same,EMax (% of 1 μM dexamethasone ± SE),R5 reporter; [8],9.3%
same,EMax (% of 1 μM dexamethasone ± SE),R5 reporter; [9],92.2%
same,"recruitment of GR to FKBP5, fold",GR recruitment to FKBP5,240 ± 150 fold
same,EMax (Fold ± SE),"R8 reporter [1]; R8 reporter, glucocorticoid + IL-1β (1 ng/mL), 6 h",16.2 Fold
same,EMax (Fold ± SE),"R8 reporter [1]; R8 reporter, glucocorticoid, naïve, 6 h",2.2 Fold
"IL-1β: Recombinant human IL-1β (R&D Systems), proinflammatory cytokine",EMax (Fold ± SE),"R2 reporter; R2 reporter, IL-1β + dexamethasone (1 μM), 6 h",3.8 ± 0.2 Fold
same,"reporter activity, fold","R2 reporter; R2 reporter, IL-1β at 1 ng/mL in the presence of dexamethasone (1 μM) (Fig. 3F)",4.0 ± 1.1 fold
same,EMax (Fold ± SE),"R2 reporter; R2 reporter, IL-1β concentration-response, naïve, n.r. = no significant response",n.r.
same,pEC50 (−log[g/ mL] ± SE),"R2 reporter; R2 reporter, IL-1β, naïve, n.r. = no significant response",n.r.
same,EMax (Fold ± SE),"R4 reporter; R4 reporter, IL-1β + Budesonide (300 nM)",4.8 Fold
same,EMax (Fold ± SE),"R4 reporter; R4 reporter, IL-1β + dexamethasone (1 μM), 6 h",4.3 ± 0.1 Fold
same,EMax (Fold ± SE),"R4 reporter; R4 reporter, IL-1β, naïve, 6 h (Table 1)",3.5 ± 0.1 Fold
same,EMax (Fold ± SE),"R4 reporter; R4 reporter, IL-1β, naïve, budesonide series (Supplemental Table 1)",3.6 Fold
same,"reporter activity, fold of no stimulation ± SD","R4 reporter; R4 reporter, dexamethasone 1 μM, IL-1β 1 ng/mL or both, 6 h (Fig. 3C)",3.3 ± 1.9 fold
same,"reporter activity, fold of not stimulated","R4 reporter; R4 reporter, naïve cells, dexamethasone 1 μM, IL-1β 1 ng/mL or both, 6 h (Fig. 5C)",2.8 ± 0.7 fold
same,EMax (% of 1 μM dexamethasone ± SE),"R5 reporter; R5 reporter, IL-1β + dexamethasone (1 μM): inhibition of dexamethasone-induced activity, % of 1 μM dexamethasone",15.1% ± 3.1
same,EMax,R5 reporter; [10],n.r.
same,pEC50 (−log[g/ mL] ± SE),R5 reporter; [10],n.r.
same,"reporter inducibility, fold",R7 reporter; IL-1β 1 ng/mL (Fig. 6A),2.3 fold
same,"reporter inducibility, fold","R7 reporter; IL-1β 1 ng/mL, 6 h (Fig. 5C)",2.0 ± 0.9 fold
same,"reporter activity, fold of no stimulation ± SD","R7 reporter; dexamethasone 1 μM, IL-1β 1 ng/mL or both, 6 h (Fig. 3C)",2.0 ± 0.7 fold and 2.0 fold
same,"reporter activity, fold of no stimulation ± SD",R0 reporter,1.6 ± 0.5 fold
same,"reporter activity, fold of no stimulation ± SD",R3 reporter,1.4 ± 0.3 fold
same,"recruitment of RELA to CXCL8, fold",[2],48 ± 11 fold
same,EMax (Fold ± SE),"R8 reporter [1]; R8 reporter, IL-1β + Budesonide (300 nM)",9.3 Fold
same,EMax (Fold ± SE),"R8 reporter [1]; R8 reporter, IL-1β + dexamethasone (1 μM), 6 h",16.5 ± 1.0 Fold
same,"reporter activity, fold","R8 reporter [1]; R8 reporter, IL-1β alone (Fig. 3I)",1.2 ± 0.3 fold
same,EMax (Fold ± SE),R8 reporter [1]; [11],n.r.
same,pEC50 (−log[g/ mL] ± SE),R8 reporter [1]; [11],n.r.
same,EMax (Fold ± SE),R8 reporter [1]; [12],n.r.
same,pEC50 (-log[g/ml] ±SE),R8 reporter [1]; [12],n.r.
same,"reporter activity, fold of no stimulation ± SD","R8 reporter [1]; R8 reporter, dexamethasone 1 μM, IL-1β 1 ng/mL or both, 6 h (Fig. 3C)",1.3 ± 0.7 fold
"C[C@@H]1C[C@H]2[C@@H]3CCC4=CC(=O)C=C[C@]4(C)[C@@]3(F)[C@@H](O)C[C@]2(C)[C@@]1(O)C(=O)CO [Dexamethasone, dexamethasone]",EC50,R2 reporter; [4],10.2 nM
same,EC50,R2 reporter; [5],8.51 nM
same,EC50,R5 reporter; [6],10 nM
same,EC50,R5 reporter; [7],11.5 nM
same,EC50,"R5 reporter; A549, R5 reporter, dexamethasone, Schild experiments (Fig. 7C), read-out: pEC50 (converted)",11.7 nM
same,EMax (% of 1 μM dexamethasone ± SE),R5 reporter; [8],16.3% ± 1.8
same,EMax (% of 1 μM dexamethasone ± SE),R5 reporter; [9],101% ± 2
same,EC50,R8 reporter [1]; dexamethasone alone,10.7 nM
same,EC50,R8 reporter [1]; dexamethasone in the presence of IL-1β,8.32 nM
"O=C(Nc1cc(Cl)cc2c1[nH]c1cnccc12)c1cccnc1 [PS-1145, N-(6-chloro-9h-pyrido[3,4-b]indol-8-yl)-3-pyridinecarboxamide]",inhibition of IL-1β-plus-dexamethasone-induced reporter activity,"R2 reporter; R2 reporter, inhibitor 30 μM (Fig. 6A)",unaffected
same,reduction in reporter activity induced by dexamethasone,"R2 reporter; R2 reporter, inhibitor 30 μM, dexamethasone 1 μM (Fig. 6A)",unaffected
same,reduction of dexamethasone-induced R4 reporter activity,"R4 reporter; inhibitor 30 μM, dexamethasone 1 μM",24.5%
same,EC50,BIRC3 mRNA,2750 nM
same,repression of IL-1β-induced BIRC3 mRNA,BIRC3 mRNA,~54%
same,effect on IL-1β-induced BIRC2 mRNA expression,BIRC2 mRNA,no effect on IL-1β-induced expression until a concentration of 100 μM
same,EC50,NF-κB reporter,1000 to 2000 nM
same,inhibition at 30 µM,R8 reporter [1],> 60%
"COc1c(Cl)cc2c([nH]c3cnccc32)c1NC(=O)c1cccnc1C.Cl.Cl [ML120B, N-(6-Chloro-7-methoxy-9H-pyrido[3,4-b]indol-8-yl)-2-methyl-3-pyridinecarboxamide dihydrochloride]",reduction in reporter activity in the presence of IL-1β,R2 reporter,27.8%
same,reduction in reporter activity induced by dexamethasone,R2 reporter,34.0%
same,EC50,R4 reporter,≥ 30000 nM
same,EC50,BIRC3 mRNA,2950 nM
same,repression of IL-1β-induced BIRC3 mRNA,BIRC3 mRNA,~54%
same,EC50,"BIRC2 mRNA; Homo sapiens, A549, 2 h",10500 nM
same,effect on IL-1β-induced BIRC2 mRNA expression,BIRC2 mRNA,partial repressive effect
same,EC50,R8 reporter [3],10000 nM
same,EC50,NF-κB reporter,8200 nM
same,inhibition at 30 µM,R8 reporter [1],> 75%
"NC(=O)Nc1sc(-c2ccc(F)cc2)cc1C(N)=O [TPCA-1, 2-[(aminocarbonyl)amino]-5-(4-fluorophenyl)-3-thiophenecarboxamide]",inhibition at 30 µM,"R2 reporter; Homo sapiens, A549, read-out: inhibition of IL-1β-plus-dexamethasone-induced reporter activity",56%
same,EC50,R4 reporter,2600 nM
same,repression of IL-1β-induced BIRC3 mRNA,BIRC3 mRNA,near complete inhibition
same,effect on IL-1β-induced BIRC2 mRNA expression,BIRC2 mRNA,"below 10 μM, TPCA-1 was without effect"
same,EC50,NF-κB reporter,2000 nM
same,inhibition of IL-1β-plus-dexamethasone-induced R8 reporter activity,R8 reporter [1]; inhibitor 30 μM,complete inhibition

# Source: paper PMC12799407, “Differential RELA and GR recruitment to the BIRC3/BIRC2 locus: Molecular insight as to combinatorial regulation by proinflammatory cytokines and glucocorticoid” (Molecular Pharmacology, 2025)
